According to ChEMBL document CHEMBL1133305, “Phenyloxazoles and phenylthiazoles as benzamide bioisosteres: synthesis and dopamine receptor binding profiles” (Bioorg Med Chem Lett, 2000):
pKi: −log10 of the molar value.

Tests used:
[1] = target: T1, D(2) dopamine receptor (Homo sapiens, UniProt P14416); experiment: In vitro displacement of [3H]spiperone from the recombinant human dopamine receptor D2L stably expressed in CHO cells; assay type: cell-based
[2] = target: T1, D(2) dopamine receptor; experiment: In vitro displacement of [3H]spiperone from the recombinant human dopamine receptor D2 short form expressed in CHO cells; assay type: cell-based
[3] = target: D(1A) dopamine receptor (Bos taurus, UniProt Q95136); experiment: In vitro displacement of [3H]- SCH 23390 from the dopamine receptor D1 of bovine striatal membrane
Chain of D(1A) dopamine receptor (Q95136 whole entry): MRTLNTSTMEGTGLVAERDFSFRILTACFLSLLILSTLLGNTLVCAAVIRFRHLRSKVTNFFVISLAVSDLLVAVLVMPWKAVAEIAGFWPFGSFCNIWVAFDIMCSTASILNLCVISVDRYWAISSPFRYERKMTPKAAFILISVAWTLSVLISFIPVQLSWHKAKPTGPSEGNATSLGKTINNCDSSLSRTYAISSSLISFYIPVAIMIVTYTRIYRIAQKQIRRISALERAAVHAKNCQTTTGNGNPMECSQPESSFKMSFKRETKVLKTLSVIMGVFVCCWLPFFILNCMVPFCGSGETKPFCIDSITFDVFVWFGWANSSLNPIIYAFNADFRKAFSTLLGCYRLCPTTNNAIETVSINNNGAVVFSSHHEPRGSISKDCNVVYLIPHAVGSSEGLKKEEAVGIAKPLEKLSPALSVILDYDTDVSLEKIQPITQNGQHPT

[4] = target: T2, D(4) dopamine receptor (Homo sapiens, UniProt P21917); experiment: In vitro displacement of [3H]spiperone from the recombinant human dopamine receptor D4 expressed in CHO cells; assay type: cell-based
T2 sequence (P21917 whole entry): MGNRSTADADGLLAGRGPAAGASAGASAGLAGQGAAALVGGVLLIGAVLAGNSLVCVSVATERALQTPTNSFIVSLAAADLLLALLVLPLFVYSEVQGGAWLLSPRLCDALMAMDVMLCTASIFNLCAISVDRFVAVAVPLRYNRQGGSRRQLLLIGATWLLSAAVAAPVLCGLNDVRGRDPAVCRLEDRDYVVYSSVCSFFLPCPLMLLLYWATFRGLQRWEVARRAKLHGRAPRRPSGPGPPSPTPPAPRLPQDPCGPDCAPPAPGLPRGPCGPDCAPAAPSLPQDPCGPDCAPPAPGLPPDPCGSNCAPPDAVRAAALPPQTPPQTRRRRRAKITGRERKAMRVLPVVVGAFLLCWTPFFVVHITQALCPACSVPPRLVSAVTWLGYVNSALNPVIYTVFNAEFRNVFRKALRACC

[5] = target: D(3) dopamine receptor (Homo sapiens, UniProt P35462); experiment: In vitro displacement of [3H]spiperone from the cloned human dopamine receptor D3 stably expressed in CHO cells; assay type: cell-based
Chain of D(3) dopamine receptor (P35462 whole entry): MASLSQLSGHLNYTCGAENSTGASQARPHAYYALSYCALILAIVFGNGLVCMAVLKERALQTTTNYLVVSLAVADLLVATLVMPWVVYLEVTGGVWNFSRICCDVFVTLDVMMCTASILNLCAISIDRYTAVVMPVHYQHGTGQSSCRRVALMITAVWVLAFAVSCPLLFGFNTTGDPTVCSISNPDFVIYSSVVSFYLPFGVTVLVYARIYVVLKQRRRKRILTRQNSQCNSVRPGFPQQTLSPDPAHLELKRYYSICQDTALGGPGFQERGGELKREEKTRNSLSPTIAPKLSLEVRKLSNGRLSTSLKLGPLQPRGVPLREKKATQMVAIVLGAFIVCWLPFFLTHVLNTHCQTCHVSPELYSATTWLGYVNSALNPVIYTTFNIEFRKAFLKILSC

T1 sequence (P14416 whole entry): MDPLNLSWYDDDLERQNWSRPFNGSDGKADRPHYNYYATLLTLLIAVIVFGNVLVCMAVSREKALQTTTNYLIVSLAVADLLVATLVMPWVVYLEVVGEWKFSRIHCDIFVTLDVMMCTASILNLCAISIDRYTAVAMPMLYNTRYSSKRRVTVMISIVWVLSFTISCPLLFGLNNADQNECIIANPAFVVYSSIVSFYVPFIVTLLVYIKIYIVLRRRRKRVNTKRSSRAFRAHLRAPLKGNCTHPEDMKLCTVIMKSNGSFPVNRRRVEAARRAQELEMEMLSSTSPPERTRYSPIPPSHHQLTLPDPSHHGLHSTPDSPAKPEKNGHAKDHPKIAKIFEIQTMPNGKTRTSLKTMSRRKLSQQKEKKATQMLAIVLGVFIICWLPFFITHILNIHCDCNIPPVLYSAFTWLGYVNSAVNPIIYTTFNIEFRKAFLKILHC

Row | SMILES | pKi [1] | pKi [2] | pKi [3] | pKi ([4]; cho) | pKi [5] | pKi [4]
1 | c1ccc(CN2CC[C@@H](CNCc3csc(-c4ccccc4)n3)C2)cc1 (stereo in doubt) | 5.10 | 5.19 | 4.87 | 6.41 | 6.06 | 
2 | COc1ccc(Br)cc1-c1nc(CNC[C@@H]2CCN(Cc3ccccc3)C2)cs1 [listing 1 of 2 here] | 6.38 | 6.55 | 5.31 |  | 6.94 | 6.77
3 | c1ccc(CN2CCC(NCc3coc(-c4ccccc4)n3)CC2)cc1 | 4.85 | 5.06 | 4.52 |  | 5.21 | 6.46
4 | COc1c(-c2nc(CNC[C@@H]3CCN(Cc4ccccc4)C3)co2)cc(Br)c2ccccc12 | 4.34 | 4.76 | 4.00 |  | 5.23 | 4.81
5 | COc1ccc(Br)cc1-c1nc(CNCC[C@@H]2CCN(Cc3ccccc3)C2)co1 | 5.97 | 5.96 | 5.05 |  | 6.92 | 6.77
6 | c1ccc(CN2CCN(Cc3csc(-c4ccccc4)n3)CC2)cc1 | 4.55 | 4.71 | 5.04 |  | 5.28 | 6.23
7 | Oc1ccc(Br)cc1-c1nc(CN2CCN(c3ccccc3)CC2)co1 | 5.18 | 5.36 | 4.76 |  | 5.12 | 6.24
8 | COc1ccc(Br)cc1-c1nc(CNC[C@@H]2CCN(Cc3ccccc3)C2)cs1 [listing 2 of 2 here] | 6.73 | 7.04 | 5.40 |  | 6.66 | 6.82
9 | c1ccc(CN2CCN(Cc3coc(-c4ccccc4)n3)CC2)cc1 | 4.56 | 4.67 | 4.14 |  | 5.08 | 5.84
10 | COc1ccc(Br)cc1-c1nc(CN(C)C[C@@H]2CCN(Cc3ccccc3)C2)co1 | 5.42 | 5.49 | 5.26 |  | 5.92 | 6.19
11 | COc1ccc(Br)cc1-c1nc(CN2CCN(c3ccccc3)CC2)cs1 | 6.21 | 6.36 | 5.90 |  | 5.92 | 6.23
12 | COc1ccc(Br)cc1-c1nc(CNC[C@@H]2CCN(Cc3ccccc3)C2)co1 | 6.49 | 6.61 | 5.46 |  | 7.19 | 7.96
13 | COc1ccc(Br)cc1-c1nc(CN[C@@H]2CCN(Cc3ccccc3)C2)co1 | 5.61 | 5.70 | 5.10 |  | 5.77 | 7.41
